Test results taken from BigSolDB 2.1.

CC(=NC#N)N(C)Cc1ccc(Cl)nc1
solubility (mole fraction)
Conditions | 278.15 K | 283.15 K | 288.15 K | 293.15 K | 298.15 K | 303.15 K | 308.15 K | 313.15 K | 318.15 K
in 1,4-dioxane | – | – | 0.0693 | 0.0799 | 0.0941 | 0.113 | 0.132 | 0.153 | 0.175
in DMF | 0.175 | 0.201 | 0.229 | 0.269 | 0.318 | 0.368 | 0.421 | 0.477 | 0.542
in DMSO | – | – | – | 0.376 | 0.426 | 0.481 | 0.54 | 0.608 | 0.68
in NMP | 0.197 | 0.221 | 0.255 | 0.299 | 0.352 | 0.405 | 0.46 | 0.523 | 0.589
in acetone | 0.104 | 0.118 | 0.138 | 0.162 | 0.191 | 0.226 | 0.264 | 0.303 | 0.346
in ethanol | 0.0162 | 0.0192 | 0.0232 | 0.0284 | 0.0328 | 0.0382 | 0.0448 | 0.05 | 0.0572
in ethyl acetate | 0.0106 | 0.0128 | 0.0155 | 0.019 | 0.0233 | 0.0281 | 0.0332 | 0.039 | 0.0448
in ethylene glycol | 0.00978 | 0.0106 | 0.0134 | 0.0163 | 0.0194 | 0.023 | 0.0269 | 0.0313 | 0.0367
in isobutanol | 0.0028 | 0.00315 | 0.0037 | 0.00452 | 0.00519 | 0.00613 | 0.00696 | 0.00821 | 0.00932
in isopropanol | 0.0067 | 0.00763 | 0.00886 | 0.0108 | 0.0127 | 0.0147 | 0.0166 | 0.0195 | 0.0221
in methanol | 0.0199 | 0.0227 | 0.0273 | 0.0325 | 0.0382 | 0.0452 | 0.0532 | 0.0619 | 0.0703
in n-butanol | 0.00149 | 0.00165 | 0.00202 | 0.00242 | 0.00284 | 0.00337 | 0.00378 | 0.00447 | 0.00507
in water | 0.000146 | 0.000173 | 0.000213 | 0.000269 | 0.000348 | 0.00045 | 0.000572 | 0.000721 | 0.000911
